Test results as given in patent US9987211B2, “Sunless tanning compounds and compositions” (REGENTS OF THE UNIVERSITY OF MINNESOTA, priority 2013, dated 2018).

Tested on: guinea pig skin
Assay: Pigment changes with topical application on guinea pig skin (melanin stimulation)
Format: in vivo
Protocol: Compounds 10, 117 and 123 in a solution of 75% PG/25% DMSO at 300 μM and 600 μM were provided in light tight containers and stored at 4 degrees C. Solutions were brought to room temp and vortexed prior to each use. Female Guinea pigs were shaved with electric clippers and the remaining stubble removed with Nair. The dorsal area of each guinea pig was divided into 2-3 sections. Treatment with compounds/vehicle began immediately after Nair application. 25 μL of each solution was applied to the assigned treatment site twice daily for 5 days. Hair removal, monitoring and photography continued once weekly for 30 days. Photos were taken with a Nikon D80 Digital SLR camera and Miravex Antera Melanin sensing camera.

[1] = 0.025 mL of 600 μM applied on guinea pig skin twice daily for five consecutive days, by day 15

Compound | melanin stimulation relative to surrounding untreated skin [1] | melanin stimulation relative to surrounding untreated skin (0.025 mL of 300 μM applied on guinea pig skin twice daily for five consecutive days, by day 8)
Cc1cn(CC(Cn2cc(C)c(=O)[nH]c2=O)C(=O)O)c(=O)[nH]c1=O [Compound 117] | marked melanin stimulation | 
C[C@@]12C(=O)NC(=O)N3CCCN4C(=O)NC(=O)[C@]1(C)[C@H]4[C@H]32 [Compound 10] |  | marked melanin stimulation
Thymidine dinucleotide 5′-phosphate [reference compound] | marked melanin stimulation | 
